These results are taken from patent US20240279217A1, “Heterocyclic compounds for the treatment of tuberculosis” (TECNIMEDE - SOCIEDADE TÉCNICO-MEDICINAL, SA, priority 2021, published 2024).

pIC50: −log10 of the molar value. ≈ marks a conversion by molar mass, not a printed value. Structures can show the parent of a compound that is named as a salt. Where two headings read alike, the source gives them in different places.

Test [1] concerns H37Rv M. tuberculosis (strain ATCC 25618). Put plainly: Mycobacterium tuberculosis susceptibility assay REMA (resazurin microtiter assay). Type of test: cell-based. The following applies: for MIC: Mycobacterium tuberculosis, 144 h, read-out: REMA MIC; for REMA MIC: Table 2.
Test [2] relates to HepG2 cell line. Nature of the test: In vitro cytotoxicity assay (MTS tetrazolium reduction). The class given is cell-based. The following applies: HepG2, 48 h. As to the method:
In an embodiment, in vitro cytotoxicity assay was carried out. In vitro cytotoxicity assay was performed in HepG2 cell line using a tetrazolium reduction assay for cell viability evaluation (MTS reduction as described by Cory A. et al (Cancer Commun. 1991, 3 (7), 207-212)). The assay was performed in 96-well plates for 48 h at 37° C. and 5% CO2 in incubation medium (low glucose DMEM with Glutamax, 10% FBS, 1% Pen/Strep and DMSO). Cells were exposed to 8 different compound concentrations in successive dilutions (usually, base 2), plus a positive control (a compound in a concentration known to decrease cell viability above 50%) and a negative control (incubation medium). Six replicate wells were assayed for each condition. Compound stock solutions were prepared in DMSO at 20 mM, whenever possible, filter sterilized, aliquoted and stored at −20° C. The maximum compound concentrations tested depend on its solubility in incubation medium, and on the maximum DMSO percentage allowable without loss of cell viability. At the end of the incubation period, tetrazolium reagent was added (CellTiter 96′ AQueous Solution from Promega); cells were incubated for another 3 hours in order to promote tetrazolium reduction to formazan by viable cells. The amount of soluble formazan produced was evaluated by 490 nm absorbance reading in a spectrophotometer plate reader. […] Whenever possible, IC50 was calculated as the concentration of compound that reduces cell viability by 50%.
Background: Tetrazolium dyes change colour on reduction, which living cells bring about.

The mark [3] stands for this setting: MTB growth REMA, H37Rv, Middlebrook 7H9, 6 days at 37° C.
The mark [4] stands for this setting: Table 1, MTB growth REMA, H37Rv, Middlebrook 7H9, 6 days at 37° C.
[5] abbreviates: Homo sapiens, Table 1, cytotoxicity, MTS, read-out: IC50.
Setting [6] is: Table 2, cytotoxicity, MTS, read-out: IC50.

With `COc1cccc2ccc(N3CCC(c4nc(-c5ccc(C(F)(F)F)cc5)no4)CC3)nc12` [Compound 5, 5-(1-(8-methoxyquinolin-2-yl)piperidin-4-yl)-3-(4-(trifluoromethyl)phenyl)-1,2,4-oxadiazole hydrochloride], in test [1], the MIC was 7.8 to 15.6 µM. Further, the pIC50 in test [2] (Homo sapiens) is 4.00 to 4.30.

In the case of `COc1cc(OC)cc(-c2noc(C3CCN(c4ccc5cccc(OC)c5n4)CC3)n2)c1` [Compound 6, 3-(3,5-dimethoxyphenyl)-5-(1-(8-methoxyquinolin-2-yl)piperidin-4-yl)-1,2,4-oxadiazole], in test [1], the MIC fell in the range of 7.8 to 15.6 µM (≈ 3.48 to 6.97 µg/mL). In addition, in test [1] (setting [3]), the “REMA MIC” value is reported as “+++ (7.8-15.6)”. In addition, the pIC50 in test [2] (Homo sapiens) was less than 4.00; in test [2] (Table 2, cytotoxicity, MTS) it was less than 4.00.

With `COc1cccc2ccc(N3CCC(c4nc(-c5cccc(C(F)(F)F)c5)no4)CC3)nc12` [Compound 7, 5-(1-(8-methoxyquinolin-2-yl)piperidin-4-yl)-3-(3-(trifluoromethyl)phenyl)-1,2,4-oxadiazole], in test [1], the MIC lay in the range of 15.6 to 31.5 µM (≈ 7.09 to 14.3 µg/mL). The compound further gave a pIC50 in test [2] (Homo sapiens) of less than 4.00.

Take `COc1cccc2ccc(N3CCC(c4nc(-c5cccnc5)no4)CC3)nc12` [Compound 10, 5-(1-(8-methoxyquinolin-2-yl)piperidin-4-yl)-3-(pyridin-3-yl)-1,2,4-oxadiazole hydrochloride]: the MIC in test [1] fell in the range of 15.6 to 31.5 µM. The pIC50 in test [2] (Homo sapiens) was 4.00 to 4.30.

For the compound `COc1cccc2ccc(N3CCC(c4nc(-c5ccc(C(F)(F)F)nc5)no4)CC3)nc12` [Compound 11, 5-(1-(8-methoxyquinolin-2-yl)piperidin-4-yl)-3-(6-(trifluoromethyl)pyridin-3-yl)-1,2,4-oxadiazole], the MIC in test [1] is less than 7.8 µM. This compound gave a pIC50 in test [2] (Homo sapiens) of 4.30 to 4.70.

On to `Clc1cccc2ccc(N3CCC(c4nc(-c5cccnc5)no4)CC3)nc12` [Compound 18, 5-(1-(8-chloroquinolin-2-yl)piperidin-4-yl)-3-(pyridin-3-yl)-1,2,4-oxadiazole hydrochloride], for which the MIC in test [1] was in the range of 15.6 to 31.5 µM. The compound further had a pIC50 in test [2] (Homo sapiens) of 4.00 to 4.30.

For `COc1ccc2nc(N3CCC(c4nc(-c5cccnc5)no4)CC3)ccc2c1` [Compound 21, 5-(1-(6-methoxyquinolin-2-yl)piperidin-4-yl)-3-(pyridin-3-yl)-1,2,4-oxadiazole], the MIC in test [1] (setting [4]) was less than 7.8 µM. The “REMA MIC” value in test [1] (setting [3]) was “++++ (<7.8)”. Moreover, the pIC50 in test [2] (setting [5]) and in test [2] (setting [6]) was less than 4.00 each time.

In the case of `COc1cccc2ccc(N3CCC(c4nc(-c5ccc(O)cc5)no4)CC3)nc12` [Compound 24, 4-(5-(1-(8-methoxyquinolin-2-yl)piperidin-4-yl)-1,2,4-oxadiazol-3-yl)phenol], in test [1] (setting [4]), the MIC was in the range of 7.8 to 15.6 µM (≈ 3.14 to 6.28 µg/mL). In test [1] (setting [3]), the “REMA MIC” value was “+++ (7.8-15.6)”. For the same compound, the pIC50 in test [2] (setting [5]) and in test [2] (setting [6]) was less than 4.00 each time.

For the compound `c1cncc(-c2noc(C3CCN(c4ccc5cc(-c6ccncc6)ccc5n4)CC3)n2)c1` [Compound 27, 3-(pyridin-3-yl)-5-(1-(6-(pyridin-4-yl)quinolin-2-yl)piperidin-4-yl)-1,2,4-oxadiazole], in test [1] (setting [4]), the MIC is less than 7.8 µM. Moreover, in test [1] (setting [3]), the “REMA MIC” value was “++++ (<7.8)”. Further, the pIC50 in test [2] (setting [5]) and in test [2] (setting [6]) was less than 4.00 in each case.

For the compound `COc1cccc2ccc(N3CCC(c4nc(-c5ccc(Cl)nc5)no4)CC3)nc12` [Compound 31, 3-(6-chloropyridin-3-yl)-5-(1-(8-methoxyquinolin-2-yl)piperidin-4-yl)-1,2,4-oxadiazole hydrochloride], the minimum inhibitory concentration (MIC) in test [1] is 15.6 to 31.5 µM. This compound also had a pIC50 in test [2] (Homo sapiens) of 4.30 to 4.70.

`COc1cccc2ccc(N3CCC(c4nc(-c5ccc(N6CCCCC6)nc5)no4)CC3)nc12` [Compound 33, 5-(1-(8-methoxyquinolin-2-yl)piperidin-4-yl)-3-(6-(piperidin-1-yl)pyridin-3-yl)-1,2,4-oxadiazole]: in test [1], the MIC was less than 7.8 µM. Further, the “REMA MIC” value in test [1] (setting [3]) is on record as “++++ (<7.8)”. Also, the negative logarithm of the IC50 (pIC50) is less than 4.00 in test [2] (Homo sapiens) and less than 4.00 in test [2] (Table 2, cytotoxicity, MTS).

Turning to `COc1cccc2ccc(N3CCC(c4nc(-c5ccc(N6CCNCC6)nc5)no4)CC3)nc12` [Compound 34, 5-(1-(8-methoxyquinolin-2-yl)piperidin-4-yl)-3-(6-(piperazin-1-yl)pyridin-3-yl)-1,2,4-oxadiazole], in test [1] (setting [4]), the minimal inhibitory concentration (MIC) was in the range of 15.6 to 31.5 µM (≈ 7.36 to 14.9 µg/mL). In test [2] (setting [5]), the pIC50 is more than 4.70.

For the compound `COc1cccc2ccc(N3CCC(c4nc(-c5ccc(NCCO)nc5)no4)CC3)nc12` [Compound 35, 2-((5-(5-(1-(8-methoxyquinolin-2-yl)piperidin-4-yl)-1,2,4-oxadiazol-3-yl)pyridin-2-yl)amino)ethan-1-ol hydrochloride], the MIC in test [1] fell in the range of 15.6 to 31.5 µM. Also, the pIC50 in test [2] (Homo sapiens) was less than 4.00.

Consider `COc1cccc2ccc(N3CCC(c4nc(-c5ccc(N6CCCC6)nc5)no4)CC3)nc12` [Compound 50, 5-(1-(8-methoxyquinolin-2-yl)piperidin-4-yl)-3-(6-(pyrrolidin-1-yl)pyridin-3-yl)-1,2,4-oxadiazole hydrochloride], for which, in test [1], the MIC lay in the range of 7.8 to 15.6 µM. In addition, in test [1] (setting [3]), the “REMA MIC” value is recorded as “+++ (7.8-15.6)”. For the same compound, the pIC50 in test [2] (Homo sapiens) is less than 4.00; in test [2] (Table 2, cytotoxicity, MTS), less than 4.00.

By MIC is commonly meant the lowest concentration that inhibits growth of the organism. A word on the pIC50: it is −log10 of the IC50, conventionally taken in molar units.
